Measured values: patent US20220396569A1 (Carmot Therapeutics, Inc., priority 2021, published 2022)

Each molecule was assayed against T1, human GLP-1 receptor (Homo sapiens, UniProt P43220) (assay: GLP-1R cAMP Assay (HitHunter cAMP accumulation)). Settings: cAMP accumulation, CHO cells stably overexpressing human GLP-1 receptor, 30 min treatment; read-out: EC50.
T1 construct: expressed in transfected cells
Format: cell-based
How it was run: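 CHO cells stably expressing human GLP-1R, 10,000 cells/well in HBSS with 10 mM HEPES and 625 μM IBMX, were mixed with anti-cAMP antibody reagent. Compound was applied as a 20-point dose response in triplicate for 30 min. After lysis and overnight detection, luminescence was read and dose-response curves analysed.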

T1 sequence (P43220 24-463): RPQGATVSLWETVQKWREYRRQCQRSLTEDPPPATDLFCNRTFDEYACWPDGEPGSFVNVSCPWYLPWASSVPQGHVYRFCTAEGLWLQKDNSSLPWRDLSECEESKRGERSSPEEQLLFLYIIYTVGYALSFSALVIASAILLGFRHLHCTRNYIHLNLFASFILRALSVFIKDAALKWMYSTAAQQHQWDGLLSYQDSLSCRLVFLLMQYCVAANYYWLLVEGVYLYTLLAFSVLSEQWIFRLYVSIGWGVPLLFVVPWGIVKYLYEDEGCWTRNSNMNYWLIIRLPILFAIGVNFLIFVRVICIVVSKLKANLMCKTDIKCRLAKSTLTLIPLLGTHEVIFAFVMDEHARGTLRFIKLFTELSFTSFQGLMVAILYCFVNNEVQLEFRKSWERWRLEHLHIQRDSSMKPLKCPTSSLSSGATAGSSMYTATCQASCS

SMILES	EC50
CCn1cncc1Cn1c(CN2CCC(Cc3cccc4c3OC(C)(c3ccc(Cl)cc3F)O4)CC2)nc2ccc(C(=O)O)cc21 (centres unmarked) [Compound 209]	< 50 nM
O=C(O)c1ccc2nc(CN3CC=C(c4cnc(COc5ccc(Cl)cc5Cl)o4)C3)n(C[C@@H]3CCO3)c2c1 [Example 474, (S)-2-((3-(2-((2,4-Dichlorophenoxy)methyl)oxazol-5-yl)-2,5-dihydro-1H-pyrrol-1-yl)methyl)-1-(oxetan-2-ylmethyl)-1H-benzo[d]imidazole-6-carboxylic acid]	< 50 nM
CCn1cncc1Cn1c(CN2CC=C(c3cccc(COc4ccc(Cl)cc4Cl)n3)C2)nc2ccc(C(=O)O)cc21 [Compound 385, 2-[(3-{6-[(2,4-dichlorophenoxy)methyl]pyridin-2-yl}-2,5-dihydro-1H-pyrrol-1-yl)methyl]-1-[(1-ethyl-1H-imidazol-5-yl)methyl]-1H-1,3-benzodiazole-6-carboxylic acid]	< 50 nM
N#CCC1(Cn2c(CN3CC=C(c4ccc(F)c(COc5ccc(C#N)cc5F)n4)C3)nc3c(F)cc(C(=O)O)cc32)CC1 [Compound 424, 2-[(3-{6-[(4-cyano-2-fluorophenoxy)methyl]-5-fluoropyridin-2-yl}-2,5-dihydro-1H-pyrrol-1-yl)methyl]-1-{[1-(cyanomethyl)cyclopropyl]methyl}-4-fluoro-1H-1,3-benzodiazole-6-carboxylic acid]	< 50 nM
N#Cc1ccc(OCc2cc([C@H]3CCN(Cc4nc5ccc(C(=O)O)cc5n4C[C@@H]4CCO4)C3)ccc2F)c(F)c1 [Compound 439, 2-{[(3R)-3-{3-[(4-cyano-2-fluorophenoxy)methyl]-4-fluorophenyl}pyrrolidin-1-yl]methyl}-1-{[(2S)-oxetan-2-yl]methyl}-1H-1,3-benzodiazole-6-carboxylic acid]	50 to 500 nM
O=C(O)c1cc(F)c2nc(CN3CC=C(c4ccc(F)c(COc5ccc(Cl)cc5F)n4)C3)n(C[C@@H]3CCO3)c2c1 [Compound 413, 2-[(3-{6-[(4-chloro-2-fluorophenoxy)methyl]-5-fluoropyridin-2-yl}-2,5-dihydro-1H-pyrrol-1-yl)methyl]-4-fluoro-1-{[(2S)-oxetan-2-yl]methyl}-1H-1,3-benzodiazole-6-carboxylic acid]	< 50 nM
CCn1cncc1Cn1c(CN2CC(Oc3ccnc(COc4ccc(Cl)cc4C#N)c3)C2)nc2ccc(C(=O)O)cc21 [Compound 211, 2-{[3-({2-[(4-chloro-2-cyanophenoxy)methyl]pyridin-4-yl}oxy)azetidin-1-yl]methyl}-1-[(1-ethyl-1H-imidazol-5-yl)methyl]-1H-1,3-benzodiazole-6-carboxylic acid]	< 50 nM
N#Cc1ccc(OCc2nccc(O[C@H]3C[C@@H](Cc4nc5ccc(C(=O)O)cc5n4C[C@@H]4CCO4)C3)n2)c(F)c1 [Compound 551]	< 50 nM
N#Cc1cc(Cl)ccc1OCc1cccc(OC2CN(Cc3nc4ccc(C(=O)O)cc4n3C[C@@H]3CCO3)C2)c1 [Compound 194]	< 50 nM
N#Cc1ccc(OCc2nc([C@]34C[C@H]3CN(Cc3nc5c(F)cc(C(=O)O)cc5n3C[C@@H]3CCO3)C4)ccc2F)c(F)c1 [Compound 532, 2-{[(lR,5R)-1-{6-[(4-cyano-2-fluorophenoxy)methyl]-5-fluoropyridin-2-yl}-3-azabicyclo[3.1.0]hexan-3-yl]methyl}-4-fluoro-1-{[(2S)-oxetan-2-yl]methyl}-1H-1,3-benzodiazole-6-carboxylic acid]	< 50 nM
O=C(O)c1ccc2nc(CN3CC=C(c4ccnc(COc5ccc(Cl)cc5Cl)c4)C3)n(Cc3ncco3)c2c1 [Compound 392]	< 50 nM
O=C(O)c1ccc2nc(CN3CC[C@@H](c4ccc(F)c(COc5ccc(Cl)cc5F)c4)C3)n(C[C@@H]3CCO3)c2c1 [Compound 446, 2-{[(3S)-3-{3-[(4-chloro-2-fluorophenoxy)methyl]-4-fluorophenyl}pyrrolidin-1-yl]methyl}-1-{[(2S)-oxetan-2-yl]methyl}-1H-1,3-benzodiazole-6-carboxylic acid]	< 50 nM
O=C(O)c1ccc2nc(CN3CC=C(c4ccnc(COc5ccc(Cl)cc5F)c4)C3)n(Cc3ncco3)c2c1 [Compound 404, 2-[(3-{2-[(4-chloro-2-fluorophenoxy)methyl]pyridin-4-yl}-2,5-dihydro-1H-pyrrol-1-yl)methyl]-1-[(1,3-oxazol-2-yl)methyl]-1H-1,3-benzodiazole-6-carboxylic acid]	< 50 nM
O=C(O)c1ccc2nc(Cc3ccc(Oc4ccnc(COc5ccc(Cl)cc5F)c4)cc3F)n(C[C@@H]3CCO3)c2c1 [Compound 466, 2-{[4-({2-[(4-chloro-2-fluorophenoxy)methyl]pyridin-4-yl}oxy)-2-fluorophenyl]methyl}-1-{[(2S)-oxetan-2-yl]methyl}-1H-1,3-bcnzodiazole-6-carboxylic acid]	< 50 nM
N#CCC1(Cn2c(CN3CC=C(c4ccc(F)c(COc5ccc(Cl)cc5F)n4)C3)nc3c(F)cc(C(=O)O)cc32)CC1 [Compound 430, 2-[(3-{6-[(4-chloro-2-fluorophenoxy)methyl]-5-fluoropyridin-2-yl}-2,5-dihydro-1H-pyrrol-1-yl)methyl]-1-{[1-(cyanomethyl)cyclopropyl]methyl}-4-fluoro-1H-1,3-benzodiazole-6-carboxylic acid]	< 50 nM
O=C(O)c1ccc2nc(CN3CC=C(c4nc(COc5ccc(Cl)cc5F)ccc4F)C3)n(C[C@@H]3CCO3)c2c1 [Compound 436]	< 50 nM
N#Cc1ccc(OCc2nc(C34CC3CN(Cc3nc5c(F)cc(C(=O)O)cc5n3C[C@@H]3CCO3)C4)ccc2F)c(Cl)c1 (stereo partly drawn) [Compound 525, 2-[(1-{6-[(2-chloro-4-cyanophenoxy)methyl]-5-fluoropyridin-2-yl}-3-azabicyclo[3.1.0]hexan-3-yl)methyl]-4-fluoro-1-{[(2S)-oxetan-2-yl]methyl}-1H-1,3-benzodiazole-6-carboxylic acid]	< 50 nM
O=C(O)c1ccc2nc(CN3CCC(c4cccc(Oc5ccccc5)c4)C3)n(C[C@@H]3CCO3)c2c1 (stereo partly drawn) [Example 119, 1-(((S)-Oxetan-2-yl)methyl)-2-((3-(3-phenoxyphenyl)pyrrolidin-1-yl)methyl)-1H-benzo[d]imidazole-6-carboxylic acid]	50 to 500 nM

The remaining lines, values ahead:

EC50	SMILES
< 50 nM	O=C(O)c1ccc2nc(CN3CC=C(c4cc(COc5ccc(Cl)cc5F)ncc4F)C3)n(C[C@@H]3CCO3)c2c1 [Compound 440, 2-[(3-{2-[(4-chloro-2-fluorophenoxy)methyl]-5-fluoropyridin-4-yl}-2,5-dihydro-1H-pyrrol-1-yl)methyl]-1-{[(2S)-oxetan-2-yl]methyl}-1H-1,3-benzodiazole-6-carboxylic acid]
< 50 nM	CCn1cncc1Cn1c(CN2CC(Cc3cnc(COc4ccc(Cl)cc4Cl)o3)C2)nc2ccc(C(=O)O)cc21 [Example 147, 2-((3-((2-((2,4-Dichlorophenoxy)methyl)oxazol-5-yl)methyl)azetidin-1-yl)methyl)-1-((1-ethyl-1H-imidazol-5-yl)methyl)-1H-benzo[d]imidazole-6-carboxylic acid]
< 50 nM	N#Cc1ccc(OCc2nc([C@@H]3C[C@@H](CF)N(Cc4nc5ccc(C(=O)O)cc5n4C[C@@H]4CCO4)C3)ccc2F)c(F)c1 (single isomer, unassigned) [Compound 527]
< 50 nM	O=C(O)c1ccc2nc(CN3CC(Oc4cccc(COc5ccc(Cl)cc5Cl)c4)C3)n(C[C@@H]3CCO3)c2c1 [Example 192, (S)-2-((3-(3-((2,4-Dichlorophenoxy)methyl)phenoxy)azetidin-1-yl)methyl)-1-(oxetan-2-ylmethyl)-1H-benzo[d]imidazole-6-carboxylic acid]
< 50 nM	N#Cc1ccc(OCc2nccc(Oc3ccc(Cc4nc5c(F)cc(C(=O)O)cc5n4C[C@@H]4CCO4)c(F)c3)n2)c(F)c1 [Compound 467]
< 50 nM	N#Cc1ccc(OCc2nccc(C3=CCN(Cc4nc5ccc(C(=O)O)cc5n4C[C@@H]4CCO4)C3)n2)c(F)c1 [Example 395, (S)-2-((3-(2-((4-Cyano-2-fluorophenoxy)methyl)pyrimidin-4-yl)-2,5-dihydro-1H-pyrrol-1-yl)methyl)-1-(oxetan-2-ylmethyl)-1H-benzo[d]imidazole-6-carboxylic acid]
< 50 nM	CCn1cncc1Cn1c(CN2CC(Oc3ccnc(COc4ccc(Cl)cc4Cl)c3)C2)nc2ccc(C(=O)O)cc21 [Compound 218, 2-{[3-({2-[(2,4-dichlorophenoxy)methyl]pyridin-4-yl}oxy)azetidin-1-yl]methyl}-1-[(1-ethyl-1H-imidazol-5-yl)methyl]-1H-1,3-benzodiazole-6-carboxylic acid]
< 50 nM	O=C(O)c1cc(F)c2nc(Cc3ccc(Oc4ccnc(COc5ccc(Cl)cc5F)c4)c(F)c3)n(C[C@@H]3CCO3)c2c1 [Example 471, (S)-2-(4-((2-((4-Chloro-2-fluorophenoxy)methyl)pyridin-4-yl)oxy)-3-fluorobenzyl)-4-fluoro-1-(oxetan-2-ylmethyl)-1H-benzo[d]imidazole-6-carboxylic acid]
< 50 nM	O=C(O)c1ccc2nc(CN3CC=C(c4cc(COc5ccc(Cl)cc5F)ccc4F)C3)n(C[C@@H]3CCO3)c2c1 [Compound 417, 2-[(3-{5-[(4-chloro-2-fluorophenoxy)methyl]-2-fluorophenyl}-2,5-dihydro-1H-pyrrol-1-yl)methyl]-1-{[(2S)-oxetan-2-yl]methyl}-1H-1,3-benzodiazole-6-carboxylic acid]
< 50 nM	O=C(O)c1cc(F)c2nc(CN3CC=C(c4cc(COc5ccc(Cl)cc5F)ncc4F)C3)n(C[C@@H]3CCO3)c2c1 [Compound 452]
< 50 nM	CCn1cncc1Cn1c(CN2CC(Cc3cccc(COc4ccc(Cl)cc4Cl)c3)C2)nc2ccc(C(=O)O)cc21 [Example 197, 2-((3-(3-((2,4-Dichlorophenoxy)methyl)benzyl)azetidin-1-yl)methyl)-1-((1-ethyl-1H-imidazol-5-yl)methyl)-1H-benzo[d]imidazole-6-carboxylic acid]
